# Experimental data as given in patent US20260274832A1, “COMPOUNDS AND THEIR USE IN TREATING CANCER” (ASTRAZENECA AB, priority 2023, published 2026).
# What was measured:
# [1] = biological target: T1, AR (L702H) in LNCaP cells (Homo sapiens, UniProt P10275, L702H/T878A); experiment: LNCaP Androgen Receptor L702H Imaging Assay (LNCaP cells engineered by CRISPR/Cas9); assay type: cell-based; conditions: LNCaP cells with AR L702H mutation, 24 h incubation; for DC50: concentration giving 50% of maximum degradation of AR (L702H) per curve fit; for Dmax: LNCaP, maximum degradation observed, normalized as % of positive control
# T1 construct: engineered to introduce the mutation L702H into the AR gene using CRISPR/Cas9; endogenous in cells; host or cells: LNCaP cells edited by CRISPR/Cas9 at the AR gene
# Method in brief: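 CRISPR-engineered LNCaP cells carrying AR L702H were treated 24 h at 37 °C with a 12-point compound dose response (0.3% DMSO), then fixed and immunostained for AR with DRAQ5 nuclear counterstain. Nuclear AR was quantified by imaging, normalized to positive control; DC50 and Dmax came from Hill or bell-shaped fits.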
# [2] = biological target: T2, AR (AR-full length) in LNCaP cells (Homo sapiens, UniProt P10275, T878A); experiment: LNCaP Androgen Receptor Imaging Assay (immunofluorescence of endogenous nuclear AR); assay type: cell-based; conditions: 24 h incubation; for DC50: concentration giving 50% of maximum degradation of AR per curve fit, single experiment or average of two or more; for Dmax: LNCaP, maximum degradation observed, normalized as % of positive control (prior art AR PROTAC at 3 μM)
# T2 construct: the prostate cancer cell line LNCaP (expressing AR-full length); endogenous in cells; host or cells: LNCaP
# Method in brief: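 LNCaP cells (12,000/well) received a 12-point compound dose series (0.3% DMSO) for 24 h at 37° C., then were PFA-fixed and stained for AR (AR441) and nuclei (DRAQ5). Nuclear AR was quantified by imaging, normalized to a 3 μM AR PROTAC control; DC50 and Dmax came from Hill/bell curve fits.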
# T2 sequence (P10275 whole entry T878A): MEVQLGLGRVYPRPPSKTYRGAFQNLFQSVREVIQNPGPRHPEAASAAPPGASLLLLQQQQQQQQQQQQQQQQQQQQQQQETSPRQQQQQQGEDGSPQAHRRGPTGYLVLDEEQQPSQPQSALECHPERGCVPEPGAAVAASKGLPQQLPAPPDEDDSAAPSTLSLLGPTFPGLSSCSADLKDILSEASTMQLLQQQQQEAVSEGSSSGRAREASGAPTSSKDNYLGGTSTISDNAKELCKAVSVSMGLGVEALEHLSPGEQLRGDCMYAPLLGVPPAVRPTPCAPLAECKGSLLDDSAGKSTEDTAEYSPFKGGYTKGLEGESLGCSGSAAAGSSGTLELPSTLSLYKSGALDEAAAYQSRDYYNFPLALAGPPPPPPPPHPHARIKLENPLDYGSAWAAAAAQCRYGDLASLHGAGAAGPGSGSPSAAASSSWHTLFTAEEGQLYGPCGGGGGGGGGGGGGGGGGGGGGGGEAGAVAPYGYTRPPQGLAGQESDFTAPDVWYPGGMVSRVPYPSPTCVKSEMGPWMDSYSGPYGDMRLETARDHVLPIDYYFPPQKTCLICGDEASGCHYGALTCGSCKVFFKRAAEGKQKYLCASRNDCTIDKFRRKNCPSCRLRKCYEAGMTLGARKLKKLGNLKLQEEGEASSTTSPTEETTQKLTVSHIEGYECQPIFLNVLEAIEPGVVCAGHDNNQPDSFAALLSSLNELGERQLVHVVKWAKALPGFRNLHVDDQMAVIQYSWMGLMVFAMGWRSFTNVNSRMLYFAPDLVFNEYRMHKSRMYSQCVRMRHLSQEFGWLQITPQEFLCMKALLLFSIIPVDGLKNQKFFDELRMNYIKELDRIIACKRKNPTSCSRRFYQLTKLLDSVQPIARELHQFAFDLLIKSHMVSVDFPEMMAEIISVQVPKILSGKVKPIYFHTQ
# T2 sequence (Q96SW2 whole entry partner): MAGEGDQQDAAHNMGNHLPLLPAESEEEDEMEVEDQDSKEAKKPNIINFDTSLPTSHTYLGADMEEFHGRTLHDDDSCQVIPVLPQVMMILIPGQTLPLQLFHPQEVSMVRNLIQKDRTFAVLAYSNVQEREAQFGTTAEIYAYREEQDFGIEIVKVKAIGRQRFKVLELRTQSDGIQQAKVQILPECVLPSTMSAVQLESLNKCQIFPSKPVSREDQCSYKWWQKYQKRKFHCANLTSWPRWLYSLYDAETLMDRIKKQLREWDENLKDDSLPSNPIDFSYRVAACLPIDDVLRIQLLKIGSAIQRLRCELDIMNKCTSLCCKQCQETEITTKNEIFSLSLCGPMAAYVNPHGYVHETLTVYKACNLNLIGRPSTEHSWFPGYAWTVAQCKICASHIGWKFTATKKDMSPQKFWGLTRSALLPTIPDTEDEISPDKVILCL
# T1 sequence (P10275 whole entry L702H/T878A): as the sequence (P10275 whole entry T878A) above, with L702H counted along it
# T1 sequence (Q96SW2 whole entry partner): as the sequence (Q96SW2 whole entry partner) above
Compound,DC50 [1],Dmax [1],DC50 [2],Dmax [2]
"Cn1c(C2CCN(CC3CCN(c4ccc(C(=O)NC5CCN(c6ccc(Cl)c7c(C#N)c[nH]c67)CC5)c(F)c4)CC3)CC2)cc2cc(F)c(N3CCC(=O)NC3=O)cc21 [Example 156, N-[1-(4-Chloro-3-cyano-1H-indol-7-yl)piperidin-4-yl]-4-[4-({4-[6-(2,4-dioxo-1,3-diazinan-1-yl)-5-fluoro-1-methyl-1H-indol-2-yl]piperidin-1-yl}methyl)piperidin-1-yl]-2-fluorobenzamide]",10 nM,105%,5 nM,104%
"Cn1c(=O)n(C2CCC(=O)NC2=O)c2cccc(N3CCN(CC4CCN(c5ccc(C(=O)NC6CCN(c7ccc(Cl)c8c(C#N)c[nH]c78)CC6)c(F)c5)CC4)CC3)c21 (stereo not shown) [Example 157, N-[1-(4-Chloro-3-cyano-1H-indol-7-yl)piperidin-4-yl]-4-[4-({4-[1-(2,6-dioxopiperidin-3-yl)-3-methyl-2-oxo-2,3-dihydro-1H-benzimidazol-4-yl]piperazin-1-yl}methyl)piperidin-1-yl]-2-fluorobenzamide]",4 nM,96%,3 nM,97%
"Cn1c(C2CCN(CC3CCN(c4ccc(C(=O)NC5CCN(c6ccc(Cl)c7c(C#N)c[nH]c67)CC5)c(F)c4)CC3)CC2)cc2ccc(N3CCC(=O)NC3=O)cc21 [Example 158, N-[1-(4-Chloro-3-cyano-1H-indol-7-yl)piperidin-4-yl]-4-[4-({4-[6-(2,4-dioxo-1,3-diazinan-1-yl)-1-methyl-1H-indol-2-yl]piperidin-1-yl}methyl)piperidin-1-yl]-2-fluorobenzamide]",7 nM,107%,1 nM,104%
"N#Cc1c[nH]c2c(N3CCC(NC(=O)c4ccc(N5CCC(CN6CCN(c7ccc8c(c7)CN(C7CCC(=O)NC7=O)C8=O)CC6)CC5)cc4F)CC3)ccc(Cl)c12 (stereo not shown) [Example 159, N-[1-(4-Chloro-3-cyano-1H-indol-7-yl)piperidin-4-yl]-4-[4-({4-[2-(2,6-dioxopiperidin-3-yl)-1-oxo-2,3-dihydro-1H-isoindol-5-yl]piperazin-1-yl}methyl)piperidin-1-yl]-2-fluorobenzamide]",3 nM,106%,2 nM,101%
"N#Cc1c[nH]c2c(N3CCC(NC(=O)c4ccc(N5CCC(CN6CCC(n7ccc8c(N9CCC(=O)NC9=O)cccc87)CC6)CC5)cc4F)CC3)ccc(Cl)c12 [Example 160, N-[1-(4-Chloro-3-cyano-1H-indol-7-yl)piperidin-4-yl]-4-[4-({4-[4-(2,4-dioxo-1,3-diazinan-1-yl)-1H-indol-1-yl]piperidin-1-yl}methyl)piperidin-1-yl]-2-fluorobenzamide]",4 nM,105%,1 nM,104%
"N#Cc1c[nH]c2c(N3CCC(NC(=O)c4ccc(N5CCC(CN6CCN(c7cc8c(cc7F)C(=O)N(C7CCC(=O)NC7=O)C8=O)CC6)CC5)cc4F)CC3)ccc(Cl)c12 (stereo not shown) [Example 161, N-[1-(4-Chloro-3-cyano-1H-indol-7-yl)piperidin-4-yl]-4-[4-({4-[2-(2,6-dioxopiperidin-3-yl)-6-fluoro-1,3-dioxo-2,3-dihydro-1H-isoindol-5-yl]piperazin-1-yl}methyl)piperidin-1-yl]-2-fluorobenzamide]",20 nM,98%,7 nM,95%
"N#Cc1cc(N2CCC(CN3CCC(n4ccc5c(N6CCC(=O)NC6=O)cccc54)CC3)CC2)ccc1C(=O)NC1CCN(c2ccc(Cl)c3c(C#N)c[nH]c23)CC1 [Example 162, N-[1-(4-Chloro-3-cyano-1H-indol-7-yl)piperidin-4-yl]-2-cyano-4-[4-({4-[4-(2,4-dioxo-1,3-diazinan-1-yl)-1H-indol-1-yl]piperidin-1-yl}methyl)piperidin-1-yl]benzamide]",1 nM,110%,1 nM,106%
"Cc1cc(N2CCC(CN3CCC(n4ccc5c(N6CCC(=O)NC6=O)cccc54)CC3)CC2)cc(F)c1C(=O)NC1CCN(c2ccc(Cl)c3c(C#N)c[nH]c23)CC1 [Example 163, N-[1-(4-Chloro-3-cyano-1H-indol-7-yl)piperidin-4-yl]-4-[4-({4-[4-(2,4-dioxo-1,3-diazinan-1-yl)-1H-indol-1-yl]piperidin-1-yl}methyl)piperidin-1-yl]-2-fluoro-6-methylbenzamide]",2 nM,113%,1 nM,107%
"Cc1cc(C(=O)NC2CCN(c3ccc(Cl)c4c(C#N)c[nH]c34)CC2)ccc1N1CCC(CN2CCC(n3ccc4c(N5CCC(=O)NC5=O)cccc43)CC2)CC1 [Example 164, N-[1-(4-Chloro-3-cyano-1H-indol-7-yl)piperidin-4-yl]-4-[4-({4-[4-(2,4-dioxo-1,3-diazinan-1-yl)-1H-indol-1-yl]piperidin-1-yl}methyl)piperidin-1-yl]-3-methylbenzamide]",2 nM,114%,2 nM,108%
"N#Cc1cc(C(=O)NC2CCN(c3ccc(Cl)c4c(C#N)c[nH]c34)CC2)ccc1N1CCC(CN2CCC(n3ccc4c(N5CCC(=O)NC5=O)cccc43)CC2)CC1 [Example 165, N-[1-(4-Chloro-3-cyano-1H-indol-7-yl)piperidin-4-yl]-3-cyano-4-[4-({4-[4-(2,4-dioxo-1,3-diazinan-1-yl)-1H-indol-1-yl]piperidin-1-yl}methyl)piperidin-1-yl]benzamide]",2 nM,115%,2 nM,106%
"N#Cc1c[nH]c2c(N3CCC(NC(=O)c4ccc(N5CCC(N6CCN(c7cc8c(cc7F)C(=O)N(C7CCC(=O)NC7=O)C8=O)CC6)CC5)cn4)CC3)ccc(Cl)c12 (stereo not shown) [Example 166, N-[1-(4-Chloro-3-cyano-1H-indol-7-yl)piperidin-4-yl]-5-(4-{4-[2-(2,6-dioxopiperidin-3-yl)-6-fluoro-1,3-dioxo-2,3-dihydro-1H-isoindol-5-yl]piperazin-1-yl}piperidin-1-yl)pyridine-2-carboxamide]",37 nM,92%,4 nM,85%
"N#Cc1c[nH]c2c(N3CCC(NC(=O)c4ccc(N5CCC(CN6CCC(n7ccc8c(N9CCC(=O)NC9=O)cccc87)CC6)CC5)cn4)CC3)ccc(Cl)c12 [Example 167, N-[1-(4-Chloro-3-cyano-1H-indol-7-yl)piperidin-4-yl]-5-[4-({4-[4-(2,4-dioxo-1,3-diazinan-1-yl)-1H-indol-1-yl]piperidin-1-yl}methyl)piperidin-1-yl]pyridine-2-carboxamide]",2 nM,100%,1 nM,101%
"N#Cc1c[nH]c2c(N3CCC(NC(=O)c4ccc(N5CCC(CN6CCN(c7ccc8c(c7)CN(C7CCC(=O)NC7=O)C8=O)CC6)CC5)cn4)CC3)ccc(Cl)c12 (stereo not shown) [Example 168, N-[1-(4-Chloro-3-cyano-1H-indol-7-yl)piperidin-4-yl]-5-[4-({4-[2-(2,6-dioxopiperidin-3-yl)-1-oxo-2,3-dihydro-1H-isoindol-5-yl]piperazin-1-yl}methyl)piperidin-1-yl]pyridine-2-carboxamide]",2 nM,96%,1 nM,87%
"N#Cc1c[nH]c2c(N3CCC(NC(=O)c4ccc(N5CCC(CN6CCN(c7cc8c(cc7F)C(=O)N(C7CCC(=O)NC7=O)C8=O)CC6)CC5)cn4)CC3)ccc(Cl)c12 (stereo not shown) [Example 169, N-[1-(4-Chloro-3-cyano-1H-indol-7-yl)piperidin-4-yl]-5-[4-({4-[2-(2,6-dioxopiperidin-3-yl)-6-fluoro-1,3-dioxo-2,3-dihydro-1H-isoindol-5-yl]piperazin-1-yl}methyl)piperidin-1-yl]pyridine-2-carboxamide]",23 nM,94%,5 nM,86%
"N#Cc1n[nH]c2c(N3CCC(NC(=O)c4ccc(N5CCC(CN6CCC(n7ccc8c(N9CCC(=O)NC9=O)cccc87)CC6)CC5)cn4)CC3)ccc(Cl)c12 [Example 170, N-[1-(4-Chloro-3-cyano-1H-indazol-7-yl)piperidin-4-yl]-5-[4-({4-[4-(2,4-dioxo-1,3-diazinan-1-yl)-1H-indol-1-yl]piperidin-1-yl}methyl)piperidin-1-yl]pyridine-2-carboxamide]",2 nM,101%,1 nM,100%
"Cc1ccc(N2CCC(NC(=O)c3ccc(N4CCC(CN5CCN(c6cc7c(cc6F)C(=O)N(C6CCC(=O)NC6=O)C7=O)CC5)CC4)cn3)CC2)c2[nH]cc(C#N)c12 (stereo not shown) [Example 171, N-[1-(3-Cyano-4-methyl-1H-indol-7-yl)piperidin-4-yl]-5-[4-({4-[2-(2,6-dioxopiperidin-3-yl)-6-fluoro-1,3-dioxo-2,3-dihydro-1H-isoindol-5-yl]piperazin-1-yl}methyl)piperidin-1-yl]pyridine-2-carboxamide]",36 nM,85%,5 nM,96%
